According to the supplement of paper PMC13207355:

Tests used:
Settings in all cases: exposure time: 72 h
[1] = system: E21 (patient-derived glioblastoma stem cells of mesenchymal subtype); assay: surviving fraction (nuclei count normalised to DMSO); higher = more cells surviving (less toxic)
[2] = system: E34 (patient-derived glioblastoma stem cells of proneural subtype); assay: as above
[3] = system: E28 (patient-derived glioblastoma stem cells of classical subtype); assay: as above
[4] = system: E57 (patient-derived glioblastoma stem cells of mesenchymal subtype); assay: as above
[5] = system: E31 (patient-derived glioblastoma stem cells of proneural subtype); assay: as above
[6] = system: E13 (patient-derived glioblastoma stem cells of classical subtype); assay: as above
[7] = system: FT3469 (normal neural stem cell line); assay: as above
[8] = system: E21; assay: phenotypic distance (Euclidean, principal components) from DMSO controls (arbitrary units); higher = stronger morphological change
[9] = system: E34; assay: as above
[10] = system: E28; assay: as above
[11] = system: E57; assay: as above
[12] = system: E31; assay: as above
[13] = system: E13; assay: as above
[14] = system: FT3469; assay: as above
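For phenotypic distance (Euclidean, principal components) from DMSO controls in this document: cell Painting imaging in 384-well plates, CellProfiler features reduced to at least 20 principal components, Euclidean distance versus same-plate DMSO vehicle wells (0.1% v/v), median over six images per well.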
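For surviving fraction (nuclei count normalised to DMSO) in this document: nuclei counted by high-content imaging of Hoechst-stained cells in laminin-coated 384-well plates, relative to 0.1% DMSO vehicle wells, with staurosporine as cell-death control.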

O=C(O)c1ccc(-c2c[nH]c3ncc(-c4ccccc4)cc23)cc1C1CCCC1
Settings	phenotypic distance	surviving fraction
[1], 4.11523 nM	–	0.933
[1], 12.34567901 nM	–	0.832
[1], 37.037 nM	–	0.918
[1], 111.1111111 nM	–	0.783
[1], 333.333 nM	–	0.803
[1], 1000 nM	–	0.681
[1], 3000 nM	–	0.52
[2], 4.11523 nM	–	0.913
[2], 12.34567901 nM	–	1.06
[2], 37.037 nM	–	0.86
[2], 111.1111111 nM	–	0.909
[2], 333.333 nM	–	0.805
[2], 1000 nM	–	0.714
[2], 3000 nM	–	0.527
[3], 4.11523 nM	–	0.956
[3], 12.34567901 nM	–	0.911
[3], 37.037 nM	–	0.873
[3], 111.1111111 nM	–	1.01
[3], 333.333 nM	–	0.807
[3], 1000 nM	–	0.755
[3], 3000 nM	–	0.51
[4], 4.11523 nM	–	0.932
[4], 12.34567901 nM	–	0.905
[4], 37.037 nM	–	0.923
[4], 111.1111111 nM	–	0.916
[4], 333.333 nM	–	0.835
[4], 1000 nM	–	0.6
[4], 3000 nM	–	0.35
[5], 4.11523 nM	–	1.04
[5], 12.34567901 nM	–	1.01
[5], 37.037 nM	–	0.885
[5], 111.1111111 nM	–	1.14
[5], 333.333 nM	–	0.798
[5], 1000 nM	–	1.04
[5], 3000 nM	–	0.688
[6], 4.11523 nM	–	0.996
[6], 12.34567901 nM	–	0.826
[6], 37.037 nM	–	0.899
[6], 111.1111111 nM	–	0.825
[6], 333.333 nM	–	0.72
[6], 1000 nM	–	0.588
[6], 3000 nM	–	0.413
[7], 4.11523 nM	–	0.822
[7], 12.34567901 nM	–	0.943
[7], 37.037 nM	–	0.972
[7], 111.1111111 nM	–	0.987
[7], 333.333 nM	–	0.813
[7], 1000 nM	–	0.996
[7], 3000 nM	–	0.766
[8], 4.11523 nM	0.656	–
[8], 12.34567901 nM	0.914	–
[8], 37.037 nM	0.757	–
[8], 111.1111111 nM	0.832	–
[8], 333.333 nM	0.828	–
[8], 1000 nM	1.75	–
[8], 3000 nM	4.49	–
[9], 4.11523 nM	1.13	–
[9], 12.34567901 nM	0.775	–
[9], 37.037 nM	0.829	–
[9], 111.1111111 nM	1.03	–
[9], 333.333 nM	1.12	–
[9], 1000 nM	2.9	–
[9], 3000 nM	4.8	–
[10], 4.11523 nM	0.635	–
[10], 12.34567901 nM	0.785	–
[10], 37.037 nM	0.418	–
[10], 111.1111111 nM	0.61	–
[10], 333.333 nM	0.687	–
[10], 1000 nM	1.26	–
[10], 3000 nM	2.4	–
[11], 4.11523 nM	0.657	–
[11], 12.34567901 nM	0.719	–
[11], 37.037 nM	0.687	–
[11], 111.1111111 nM	1.04	–
[11], 333.333 nM	0.598	–
[11], 1000 nM	1.78	–
[11], 3000 nM	4.38	–
[12], 4.11523 nM	0.443	–
[12], 12.34567901 nM	0.638	–
[12], 37.037 nM	0.948	–
[12], 111.1111111 nM	0.662	–
[12], 333.333 nM	1.08	–
[12], 1000 nM	1.15	–
[12], 3000 nM	1.91	–
[13], 4.11523 nM	3.86	–
[13], 12.34567901 nM	2.38	–
[13], 37.037 nM	0.747	–
[13], 111.1111111 nM	0.749	–
[13], 333.333 nM	1	–
[13], 1000 nM	2.77	–
[13], 3000 nM	5.39	–
[14], 4.11523 nM	0.839	–
[14], 12.34567901 nM	1.18	–
[14], 37.037 nM	0.627	–
[14], 111.1111111 nM	1.11	–
[14], 333.333 nM	0.969	–
[14], 1000 nM	1.71	–
[14], 3000 nM	2.49	–

CCOC(=O)C1=C(C)NC(C)=C(C(=O)OCC)C1c1c(F)c(F)c(F)c(F)c1F [Nemadipine-A]
Settings	phenotypic distance	surviving fraction
[1], 4.1 nM	–	0.897
[1], 12.3 nM	–	0.936
[1], 37 nM	–	0.991
[1], 111.1 nM	–	0.971
[1], 333.3 nM	–	0.924
[1], 1000 nM	–	0.931
[1], 3000 nM	–	0.838
[2], 4.1 nM	–	1.01
[2], 12.3 nM	–	0.767
[2], 37 nM	–	1.14
[2], 111.1 nM	–	1.16
[2], 333.3 nM	–	1.13
[2], 1000 nM	–	0.926
[2], 3000 nM	–	0.909
[3], 4.1 nM	–	0.9
[3], 12.3 nM	–	1.03
[3], 37 nM	–	0.81
[3], 111.1 nM	–	0.996
[3], 333.3 nM	–	0.945
[3], 1000 nM	–	0.934
[3], 3000 nM	–	0.704
[4], 4.1 nM	–	0.945
[4], 12.3 nM	–	1.07
[4], 37 nM	–	1.04
[4], 111.1 nM	–	0.954
[4], 333.3 nM	–	1.03
[4], 1000 nM	–	0.984
[4], 3000 nM	–	0.77
[5], 4.1 nM	–	1.15
[5], 12.3 nM	–	1.05
[5], 37 nM	–	1.01
[5], 111.1 nM	–	1.26
[5], 333.3 nM	–	1.3
[5], 1000 nM	–	1.15
[5], 3000 nM	–	1.13
[6], 4.1 nM	–	0.797
[6], 12.3 nM	–	0.944
[6], 37 nM	–	0.915
[6], 111.1 nM	–	0.841
[6], 333.3 nM	–	0.948
[6], 1000 nM	–	1.09
[6], 3000 nM	–	0.764
[7], 4.1 nM	–	1.03
[7], 12.3 nM	–	0.928
[7], 37 nM	–	1.17
[7], 111.1 nM	–	1.02
[7], 333.3 nM	–	0.866
[7], 1000 nM	–	1.1
[7], 3000 nM	–	0.804
[8], 4.1 nM	0.903	–
[8], 12.3 nM	0.665	–
[8], 37 nM	0.548	–
[8], 111.1 nM	0.745	–
[8], 333.3 nM	0.572	–
[8], 1000 nM	0.681	–
[8], 3000 nM	1.4	–
[9], 4.1 nM	0.666	–
[9], 12.3 nM	0.857	–
[9], 37 nM	0.641	–
[9], 111.1 nM	0.619	–
[9], 333.3 nM	0.843	–
[9], 1000 nM	0.698	–
[9], 3000 nM	0.734	–
[10], 4.1 nM	0.43	–
[10], 12.3 nM	0.613	–
[10], 37 nM	0.807	–
[10], 111.1 nM	0.686	–
[10], 333.3 nM	0.703	–
[10], 1000 nM	0.642	–
[10], 3000 nM	1.14	–
[11], 4.1 nM	0.523	–
[11], 12.3 nM	0.695	–
[11], 37 nM	0.79	–
[11], 111.1 nM	0.477	–
[11], 333.3 nM	1.46	–
[11], 1000 nM	0.54	–
[11], 3000 nM	1.46	–
[12], 4.1 nM	0.932	–
[12], 12.3 nM	0.387	–
[12], 37 nM	0.906	–
[12], 111.1 nM	0.74	–
[12], 333.3 nM	1.01	–
[12], 1000 nM	0.415	–
[12], 3000 nM	0.913	–
[13], 4.1 nM	0.957	–
[13], 12.3 nM	0.892	–
[13], 37 nM	0.571	–
[13], 111.1 nM	0.762	–
[13], 333.3 nM	0.542	–
[13], 1000 nM	0.692	–
[13], 3000 nM	0.903	–
[14], 4.1 nM	0.624	–
[14], 12.3 nM	0.608	–
[14], 37 nM	0.488	–
[14], 111.1 nM	0.574	–
[14], 333.3 nM	0.712	–
[14], 1000 nM	0.892	–
[14], 3000 nM	1.01	–
